# Measured values published in patent publication US20120270786A1, “INTESTINE AND MUSCLE RECOVERY” (I.N.R.A., priority 2009, published 2012).
# Marks after values point to notes of the source that are not given here.
# Legend:
# Format in all cases: in vivo, rat
# proteasome = assay: Peptidase activities of the proteasome in the small intestine of fed and starved rats
# Experimental: (§1) Young male Wistar rats (50-60 g) were obtained from Charles River (L'Arbresle, France) and maintained in a temperature controlled room (22±1° C.) with a 12 h light/12 h dark cycle. They were given free access to a standard rodent diet (A03; UAR, Epernay sur Orge, France) and to water during a 5 days acclimatization period. Three experiments were conducted. (1) In the first experiment, rats were fed ad libitum or fasted for 1 or 2 days. At the end of the fasting period, rats were anesthetized with intraperitoneal injection of urethane (1.7 g/kg body weight, Sigma Aldrich, Lyon, France) and sacrificed. […]
# Proteins from pieces of jejunum and/or ileum were homogenized using a polytron homogenizer, in ice-cold buffer (pH 7.5) containing 50 mmol/L Tris/HCl, 5 mmol/L MgCl2, 250 mmol/L sucrose, 10 mmol/L ATP, 1 mmol/L DTT, 10 μg/mL aprotinin, 10 μg/mL leupeptin, 10 μg/mL antipain, 10 μg/mL pepstatin A, and 0.2 mmol/L phenylmethylsulphonylfluoride (PMSF). […] The protein content of the proteasome preparation was determined using the Biorad protein assay following the manufacturer instructions. […] The accumulation of AMC at 37° C. during 45 minutes was measured continuously as described for cathepsin activities measurements. The difference between arbitrary fluorescence units recorded with or without 40 μmol/L […]of the proteasome inhibitor MG132 (Affiniti) in the reaction medium was calculated. […]
# [1] = system: villus height and crypt depth in the jejunum and ileum; assay: Histologic and morphometric measurements of villus height and crypt depth in jejunum and ileum; settings: GLP-2 treatment
# Experimental: (§2) Young male Wistar rats (50-60 g) were obtained from Charles River (L'Arbresle, France) and maintained in a temperature controlled room (22±1° C.) with a 12 h light/12 h dark cycle. They were given free access to a standard rodent diet (A03; UAR, Epernay sur Orge, France) and to water during a 5 days acclimatization period. Three experiments were conducted. (1) In the first experiment, rats were fed ad libitum or fasted for 1 or 2 days. At the end of the fasting period, rats were anesthetized with intraperitoneal injection of urethane (1.7 g/kg body weight, Sigma Aldrich, Lyon, France) and sacrificed. (2) In the second experiment, animals were randomly divided into control and GLP-2 treated groups (n=26-30 per group). Injections of saline (400 μL) or GLP-2 (20 μg/400 μL of saline) every 12 h started at day 0 and continued until the end of the experiment. At day 4, half of each group was deprived of food for 2 days. At day 6, animals were sacrificed as described. (3) In the last experiment, rats were allocated as described in experiment 2. Control and GLP-2 treated groups (n=20 per group) were divided into 2 groups of fed (n=5) and starved rats (n=15). Saline and GLP-2 injections continued until the sacrifice of the rats. At day 6, 5 rats from the fed and the 48 h-fasted groups treated or not with GLP-2 were sacrificed as described. The remaining fasted animals from the control and GLP-2 treated groups were refed ad libitum from day 6 for 6 or 24 h. After refeeding, rats were sacrificed as described.
# Tissue samples from jejunum and ileum were fixed in 10% formaldehyde buffered with Na2CO3 (10 g/L) and processed for villus height and crypt depth measurements. Treatment designation of slides was blinded at the time of measurement.
# small intestinal mass = assay: Small intestinal mass recovery after 48 h starvation and 6 or 24 h refeeding
# Experimental: as §2
# (§3) The entire small intestine was rapidly excised, rinsed three times with ice-cold PBS, blotted and weighed. Ten cm caudal to the pyloric sphincter and ten cm cranial to the ileo-caecal junction were taken and discarded. Jejunum and ileum were excised, weighed, and divided in small pieces of 5 cm. The first piece was immediately processed for cathepsin activities. The remaining pieces were frozen in liquid nitrogen, and stored at −80° C. until further analyses. In experiment 3, skeletal muscles (EDL, gastrocnemius and tibialis anterior) were also carefully dissected and weight.
# Cathepsin B+L+S = Cathepsin B+L+S activity in the ileum; settings: compared with untreated rats, P<0.0005
# Experimental: as §1
# (§4) The five cm pieces of jejunum and/or ileum were immediately homogenized using a polytron homogenizer in a 10 mmol/L phosphate buffer (pH 7.4) containing 50 mmol/L KCl, 1 mmol/L EDTA and 0.25 mol/L sucrose as described previously.^30 Homogenates were then centrifuged at 1,000 g (10 minutes, 4° C.). […] Cathepsin B and cathepsin B+L+S activities were determined using the fluorogenic substrates Z-arginine-arginine-AMC (ZAA-AMC, 50 μmol/L, Sigma), Z-phenylalanine-arginine-AMC (ZPA-AMC, 30 μmol/L, Sigma), respectively.^30 Neutral pH reducing the cathepsin L activity, the bulk of the cathepsin B+L+S activity measured with ZPA-AMC at pH 7.0 reflects the cathepsin B+S activity. […] Fluorescence was measured continuously at 380 nm excitation and 440 nm emission wavelengths. […]
# Cathepsin B = Cathepsin B activity in the ileum; settings: compared with untreated rats, P<0.002
# Experimental: as §1, §4
# [2] = system: Tibialis anterior, gastrocnemius and EDL muscle masses; assay: Skeletal muscle mass recovery after 48 h starvation and 24 h refeeding
# Experimental: as §2, §3
# [3] = system: starvation-induced body weight loss and intestine atrophy; assay: Starvation-induced body weight loss and intestine atrophy in saline- or GLP-2-injected rats (experiment 2); settings: for Body weight / Ileum mass / Jejunum mass / Small intestine mass: GLP-2 20 μg every 12 h, mean ± SEM
# Experimental: as §2, §3
# (§5) Data are expressed as means±SEM. One-way or two-way ANOVA were used to address for fasting effect in experiment 1 and for fasting and GLP-2 effects experiment 2 and 3. A posteriori PLSD Fisher's test was performed in order to assess for differences among groups. P values <0.05 were considered statistical significance and P values <0.10 were considered statistical tendency.
# [4] = system: starvation-induced skeletal muscle atrophy; assay: Starvation-induced skeletal muscle atrophy (experiment 3); settings: for EDL mass / gastrocnemius mass / tibialis anterior mass: GLP-2, mean ± SEM, n=5
# Experimental: as §2, §3, §5
# [5] = system: Cathepsin (B, B+S, B+L+S and D); assay: Cathepsin activities in the jejunum of fed and starved rats
# Experimental: as §1, §4
# [6] = GLP-2 effect, two-way ANOVA, P<0.0001
sequence,measurement,setting,value
"HGDGSFSDEMNTILDNLATRDFINWLIQTKITD (Rat GLP-2 sequence with an Ala-->Gly exchange in position 2) [Rat recombinant GLP-2, [Ala] in position 2 substituted by [Gly] to make the peptide resistant to DPP IV degradation]",Peptidase activities of the proteasome,"proteasome; jejunum or ileum, daily administration of GLP-2",not modified
same,increase of the chymotrypsin- and the trypsin-like activities,"proteasome; jejunum, following fasting",did not block the increase
same,villus height in the ileum,[1],no effect
same,crypt depth in the ileum,[1]; following fasting,did not inhibit the reduction
same,crypt depth in the jejunum,[1]; following starvation,blocked the decrease
same,reduction of the villus height in the jejunum,[1]; following starvation,−13%
same,small intestinal atrophy,"small intestinal mass; after 6 h of refeeding, P<0.001",15%
same,small intestinal atrophy,small intestinal mass; after 24 h of refeeding,totally absent
same,small intestine recovery,"small intestinal mass; after 24 h of refeeding, GLP-2 treated rats",totally recovered
same,recovery of the small intestinal mass,"small intestinal mass; refed rats after 48 h starvation, compared to saline injected animals",accelerated recovery
same,decrease of cathepsin B+L+S activity,Cathepsin B+L+S,−50%
same,decrease of cathepsin B activity,Cathepsin B,−43%
same,EDL muscle recovery,[2]; after 24 h of refeeding,totally recovered
same,Tibialis anterior muscle recovery,[2]; after 24 h of refeeding,totally recovered
same,gastrocnemius atrophy,"[2]; after 24 h of refeeding, compared to GLP-2 treated fed rats, P<0.05",9%
same,skeletal muscle recovery,[2]; refeeding after 48 h starvation,enhanced
same,atrophy of the jejunum,"[3]; GLP-2-treated starved rats vs. saline injected-fed rats, P<0.005",−12%
same,increase of jejunal mass,[3]; [6],21%
same,increase of total small intestinal mass,[3]; [6],22%
same,increase of ileal mass,"[3]; GLP-2 effect, two-way ANOVA, P<0.005",17.5%
same,starvation-induced loss of body weight,"[3]; GLP-2 treated group, starved vs fed",−22%
same,whole small intestine and ileum mass,[3]; GLP-2 treated-starved rats compared with saline injected-fed rats,similar
same,Body weight,"[3]; fed rats, day 6",112.5 ± 1.7^a g
same,Ileum mass,[3]; fed rats,1.24 ± 0.07^b g
same,Jejunum mass,[3]; fed rats,3.45 ± 0.08^b g
same,Small intestine mass,[3]; fed rats,5.57 ± 0.17^b g
same,Body weight,[3]; rats starved 2 days,87.2 ± 1.0^b g
same,Ileum mass,[3]; rats starved 2 days,1.02 ± 0.05^a g
same,Jejunum mass,[3]; rats starved 2 days,2.62 ± 0.09^d g
same,Small intestine mass,[3]; rats starved 2 days,4.56 ± 0.11^a g
same,reduction of the atrophy of the small intestine induced by starvation,[3]; starved rats receiving GLP-2,16%
same,EDL mass,[4]; fed rats,45.7 ± 0.9^a mg
same,gastrocnemius mass,[4]; fed rats,0.513 ± 0.013^a g
same,tibialis anterior mass,[4]; fed rats,195.7 ± 5.0^a mg
same,"skeletal muscle loss (tibialis anterior, gastrocnemius, EDL)",[4]; following 2 days of starvation,did not prevent
same,EDL mass,[4]; starved rats (48 h),37.2 ± 0.9^b mg
same,gastrocnemius mass,[4]; starved rats (48 h),0.415 ± 0.006^b g
same,tibialis anterior mass,[4]; starved rats (48 h),156.6 ± 2.0^b mg
same,cathepsin activities,[5],blocked the increase
